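Five compound concentrations were applied to cells in 96-well plates for 48 hours; endpoints were derived by simple linear interpolation of the resulting dose-response curve. TGI is the concentration that stops growth completely.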
What was measured:
Assay in all cases: growth of human tumour cells (NCI), 48 h
[1] = system: 786-0 renal
[2] = system: A498 renal
[3] = system: A549 NSCLC
[4] = system: ACHN renal
[5] = system: BT-549 breast
[6] = system: CAKI-1 renal
[7] = system: CCRF-CEM leukemia
[8] = system: COLO 205 colon
[9] = system: DU-145 prostate
[10] = system: EKVX NSCLC
[11] = system: HCC-2998 colon
[12] = system: HCT-116 colon
[13] = system: HCT-15 colon
[14] = system: HL-60(TB) leukemia
[15] = system: HOP-62 NSCLC
[16] = system: HOP-92 NSCLC
[17] = system: HS 578T breast
[18] = system: HT29 colon
[19] = system: IGROV1 ovarian
[20] = system: K-562 leukemia
[21] = system: KM12 colon
[22] = system: LOX IMVI melanoma
[23] = system: M14 melanoma
[24] = system: MALME-3M melanoma
[25] = system: MCF7 breast
[26] = system: MDA-MB-231 breast
[27] = system: MDA-MB-435
[28] = system: MDA-N
[29] = system: MOLT-4 leukemia
[30] = system: NCI-H226 lung
[31] = system: NCI-H23 lung
[32] = system: NCI-H460 lung
[33] = system: NCI-H522 lung
[34] = system: NCI/ADR-RES ovarian
[35] = system: OVCAR-3 ovarian
[36] = system: OVCAR-4 ovarian
[37] = system: OVCAR-5 ovarian
[38] = system: OVCAR-8 ovarian
[39] = system: PC-3 prostate
[40] = system: RPMI-8226 leukemia
[41] = system: RXF 393 renal
[42] = system: SF-268 CNS
[43] = system: SF-295 CNS
[44] = system: SF-539 CNS
[45] = system: SK-MEL-2 melanoma
[46] = system: SK-MEL-28 melanoma
[47] = system: SK-MEL-5 melanoma
[48] = system: SK-OV-3 ovarian
[49] = system: SN12C renal
[50] = system: SNB-19 CNS
[51] = system: SNB-75 CNS
[52] = system: SR leukemia
[53] = system: SW-620 colon
[54] = system: T-47D breast
[55] = system: TK-10 renal
[56] = system: U251 CNS
[57] = system: UACC-257 melanoma
[58] = system: UACC-62 melanoma
[59] = system: DLD-1 colon
[60] = system: DMS 114 small cell lung
[61] = system: KM20L2 colon
[62] = system: LXFL 529 NSCLC
[63] = system: M19-MEL melanoma
[64] = system: SNB-78 CNS
[65] = system: UO-31 renal
[66] = system: XF 498 CNS

COC1CCC(OS(C)(=O)=O)C(C)O1 (centres undefined)
TGI [1]: > 10 µM
TGI [2]: > 10 µM
TGI [3]: > 10 µM
TGI [4]: > 10 µM
TGI [5]: > 10 µM
TGI [6]: > 10 µM
TGI [7]: > 10 µM
TGI [8]: > 10 µM
TGI [9]: > 10 µM
TGI [10]: > 10 µM
TGI [11]: > 10 µM
TGI [12]: > 10 µM
TGI [13]: > 10 µM
TGI [14]: > 10 µM
TGI [15]: > 10 µM
TGI [16]: > 10 µM
TGI [17]: > 10 µM
TGI [18]: > 10 µM
TGI [19]: > 10 µM
TGI [20]: > 10 µM
TGI [21]: > 10 µM
TGI [22]: > 10 µM
TGI [23]: > 10 µM
TGI [24]: > 10 µM
TGI [25]: > 10 µM
TGI [26]: > 10 µM
TGI [27]: > 10 µM
TGI [28]: > 10 µM
TGI [29]: > 10 µM
TGI [30]: > 10 µM
TGI [31]: > 10 µM
TGI [32]: > 10 µM
TGI [33]: > 10 µM
TGI [34]: > 10 µM
TGI [35]: > 10 µM
TGI [36]: > 10 µM
TGI [37]: > 10 µM
TGI [38]: > 10 µM
TGI [39]: > 10 µM
TGI [40]: > 10 µM
TGI [41]: > 10 µM
TGI [42]: > 10 µM
TGI [43]: > 10 µM
TGI [44]: > 10 µM
TGI [45]: > 10 µM
TGI [46]: > 10 µM
TGI [47]: > 10 µM
TGI [48]: > 10 µM
TGI [49]: > 10 µM
TGI [50]: > 10 µM
TGI [51]: > 10 µM
TGI [52]: > 10 µM
TGI [53]: > 10 µM
TGI [54]: > 10 µM
TGI [55]: > 10 µM
TGI [56]: > 10 µM
TGI [57]: > 10 µM
TGI [58]: > 10 µM

CCOc1ccccc1NC(=O)C1=C(C)NC(C)=C(C(=O)Nc2ccccc2OCC)C1c1ccc2c(c1)OCO2
TGI [1]: > 100 µM
TGI [2]: 84 µM
TGI [3]: > 100 µM
TGI [4]: > 100 µM
TGI [6]: > 100 µM
TGI [7]: 85.1 µM
TGI [8]: > 100 µM
TGI [59]: > 100 µM
TGI [60]: > 100 µM
TGI [10]: > 100 µM
TGI [11]: 54.9 µM
TGI [14]: 45.3 µM
TGI [15]: > 100 µM
TGI [16]: 56 µM
TGI [18]: > 100 µM
TGI [19]: > 100 µM
TGI [20]: 70.3 µM
TGI [21]: 50.7 µM
TGI [61]: > 100 µM
TGI [22]: > 100 µM
TGI [62]: > 100 µM
TGI [23]: 78.2 µM
TGI [63]: > 100 µM
TGI [24]: 83.5 µM
TGI [29]: 75.3 µM
TGI [30]: > 100 µM
TGI [31]: > 100 µM
TGI [32]: > 100 µM
TGI [33]: 29.8 µM
TGI [35]: 71.8 µM
TGI [36]: 76.2 µM
TGI [37]: > 100 µM
TGI [38]: > 100 µM
TGI [40]: > 100 µM
TGI [41]: > 100 µM
TGI [42]: > 100 µM
TGI [43]: 74.6 µM
TGI [44]: 84.7 µM
TGI [45]: 55.3 µM
TGI [46]: > 100 µM
TGI [47]: 73.2 µM
TGI [48]: > 100 µM
TGI [49]: > 100 µM
TGI [50]: > 100 µM
TGI [51]: 35.3 µM
TGI [64]: 95.6 µM
TGI [53]: > 100 µM
TGI [55]: > 100 µM
TGI [56]: > 100 µM
TGI [57]: > 100 µM
TGI [65]: > 100 µM
TGI [66]: 49.6 µM

O=[N+]([O-])C(/C=C(\Cl)[N+](=O)[O-])=C(Nc1ccccc1)Nc1ccccc1
TGI [1]: 14.3 µM
TGI [2]: 31.7 µM
TGI [3]: 31.8 µM
TGI [4]: 31.9 µM
TGI [5]: 20.7 µM
TGI [6]: 26.8 µM
TGI [7]: 5.36 µM
TGI [8]: 23.1 µM
TGI [9]: 31.7 µM
TGI [10]: 27.4 µM
TGI [11]: 37.2 µM
TGI [12]: 4.36 µM
TGI [13]: 22.3 µM
TGI [14]: 14.9 µM
TGI [15]: 4.8 µM
TGI [16]: 14.4 µM
TGI [17]: 27.7 µM
TGI [18]: 25.7 µM
TGI [19]: 31 µM
TGI [20]: > 29.5 µM
TGI [21]: 24.3 µM
TGI [22]: 33.2 µM
TGI [23]: 22.9 µM
TGI [24]: 21 µM
TGI [25]: 14.6 µM
TGI [26]: 26.9 µM
TGI [27]: 17.4 µM
TGI [28]: 18.7 µM
TGI [29]: 6.12 µM
TGI [30]: 27.4 µM
TGI [31]: 23.2 µM
TGI [32]: 30 µM
TGI [33]: 4.55 µM
TGI [34]: 58.5 µM
TGI [35]: 17.3 µM
TGI [36]: 20.6 µM
TGI [37]: 20.1 µM
TGI [38]: 21.6 µM
TGI [39]: 28.8 µM
TGI [40]: 6.35 µM
TGI [41]: 10.5 µM
TGI [42]: 37.7 µM
TGI [43]: 31.6 µM
TGI [44]: 24 µM
TGI [45]: 35.8 µM
TGI [46]: 24.6 µM
TGI [47]: 26.2 µM
TGI [48]: 34.5 µM
TGI [49]: 29.4 µM
TGI [50]: 32.8 µM
TGI [51]: 14.1 µM
TGI [52]: 6.02 µM
TGI [53]: 11 µM
TGI [54]: 37.3 µM
TGI [55]: 25.4 µM
TGI [56]: 27.6 µM
TGI [57]: 27.1 µM
TGI [58]: 21.3 µM
TGI [65]: 25.3 µM

From PubChem BioAssay (NCI)
